# Patent US8846669B2, “Oxazolidinone derivative and medical composition containing same” (Legochem Biosciences, Inc., priority 2011, dated 2014)
# Like-named read-outs stand apart in the source and are kept apart here.
# Legend:
# Assay in all cases: In vitro antibacterial activity, broth microdilution MIC90
# Type in all cases: cell-based
# [1] = system: Vancomycin Resistant Enterococcus faecium
# Procedure: (§1) MIC90 was measured by broth microdilution method based on CLSI standards [reference: Clinical and Laboratory Standards Institute Document. (2000) Methods for Dilution Antimicrobial Susceptibility Test for Bacteria that Grow Aerobically-Fifth Edition: M7-A5. CLSI, Villanova, Pa.].
# (§2) Activities of 12 strains including Staphylococcus aureus, Methicillin Resistant Staphylococcus aureus, Staphylococcus epidermidis, Methicillin Resistant Staphylococcus epidermidis, Enterococcus faecalis, Vancomycin Resistant Enterococcus faecalis, Linezolid and Vancomycin Resistant Enterococcus faecalis, Enterococcus faecium, Vancomycin Resistant Enterococcus faecium, Linezolid and Vancomycin Resistant Enterococcus faecium, and Moraxella catarrhalis, were measured, and results are shown in Table 1 below.
# (§3) The final concentration of test material in the antibacterial test was from 0.063 μg/mL (minimum) to 128 μg/mL (maximum), and the final concentration of DMSO used as an excipient was 2.5% (V/V). Linezolid represented by Formula B below (manufactured by Pfizer) was used as a control and bacterial activity thereof was compared with those of the test materials.
# [2] = system: Methicillin Resistant Staphylococcus epidermidis
# Procedure: as §1, §2, §3
# Enterococcus faecalis = system: Enterococcus faecalis
# Procedure: as §1, §2, §3
# [3] = system: Methicillin Resistant Staphylococcus aureus
# Procedure: as §1, §2, §3
# [4] = system: Vancomycin Resistant Enterococcus faecalis
# Procedure: as §1, §2, §3
# Staphylococcus aureus = system: Staphylococcus aureus
# Procedure: as §1, §2, §3
# Enterococcus faecium = system: Enterococcus faecium
# Procedure: as §1, §2, §3
# Moraxella catarrhalis = system: Moraxella catarrhalis
# Procedure: as §1, §2, §3
# [5] = system: Linezolid and Vancomycin Resistant Enterococcus faecalis
# Procedure: as §1, §2, §3
# [6] = system: Staphylococcus epidermidis
# Procedure: as §1, §2, §3
# [7] = system: Linezolid and Vancomycin Resistant Enterococcus faecium (strain 10)
# Procedure: as §1, §2, §3
# [8] = system: Linezolid and Vancomycin Resistant Enterococcus faecium (strain 11)
# Procedure: as §1, §2, §3
# [9] = Enterococcus faecium, strain 9, E. faecium VanA, read-out: MIC90
# [10] = Staphylococcus epidermidis, strain 4, S. epidermidis MR, read-out: MIC90
# [11] = Enterococcus faecalis, strain 5, E. faecalis, read-out: MIC90
# [12] = Staphylococcus aureus, strain 2, S. aureus MR, read-out: MIC90
# [13] = Enterococcus faecalis, strain 6, E. faecalis VanA, read-out: MIC90
# [14] = Staphylococcus aureus, strain 1, S. aureus, read-out: MIC90
# [15] = Enterococcus faecium, strain 8, E. faecium, read-out: MIC90
# [16] = Moraxella catarrhalis, strain 12, M. catarrhalis, read-out: MIC90
# [17] = Enterococcus faecalis, strain 7, E. faecalis VanA LR, read-out: MIC90
# [18] = Staphylococcus epidermidis, strain 3, S. epidermidis, read-out: MIC90
# [19] = Enterococcus faecium, strain 10, E. faecium VanA LR, read-out: MIC90
# [20] = Enterococcus faecium, strain 11, E. faecium VanA LR, read-out: MIC90
Structure (SMILES),MIC90 ([1]; Enterococcus faecium),MIC90 ([2]; Staphylococcus epidermidis),MIC90 (Enterococcus faecalis; Enterococcus faecalis),MIC90 ([3]; Staphylococcus aureus),MIC90 ([4]; Enterococcus faecalis),MIC90 (Staphylococcus aureus; Staphylococcus aureus),MIC90 (Enterococcus faecium; Enterococcus faecium),MIC90 (Moraxella catarrhalis; Moraxella catarrhalis),MIC90 ([5]; Enterococcus faecalis),MIC90 ([6]; Staphylococcus epidermidis),MIC90 ([7]; Enterococcus faecium),MIC90 ([8]; Enterococcus faecium),"MIC90 ([1]; strain 9, E. faecium VanA)","MIC90 ([2]; strain 4, S. epidermidis MR)","MIC90 (Enterococcus faecalis; strain 5, E. faecalis)","MIC90 ([3]; strain 2, S. aureus MR)","MIC90 ([4]; strain 6, E. faecalis VanA)","MIC90 (Staphylococcus aureus; strain 1, S. aureus)","MIC90 (Enterococcus faecium; strain 8, E. faecium)","MIC90 (Moraxella catarrhalis; strain 12, M. catarrhalis)",also measured
NCC(=O)N1CCN(c2ccc(-c3ccc(N4C[C@H](Cn5ccnn5)OC4=O)cc3F)cn2)C=N1 [Compound 38],0.5 µg/mL,0.5 µg/mL,0.25 µg/mL,0.5 µg/mL,0.5 µg/mL,0.125 µg/mL,0.25 µg/mL,2 µg/mL,4 µg/mL,0.5 µg/mL,4 µg/mL,4 µg/mL,,,,,,,,,
CN1CCN(c2ccc(-c3ccc(N4C[C@H](CNc5ccon5)OC4=O)cc3F)cn2)C=N1 [Compound 40],,,,,,,,,,,,,0.5 µg/mL,2 µg/mL,0.5 µg/mL,0.25 µg/mL,1 µg/mL,0.25 µg/mL,0.125 µg/mL,2 µg/mL,"MIC90 ([5]; strain 7, E. faecalis VanA LR): 2 µg/mL; MIC90 ([6]; strain 3, S. epidermidis): 0.5 µg/mL; MIC90 ([7]; strain 10, E. faecium VanA LR): 4 µg/mL; MIC90 ([8]; strain 11, E. faecium VanA LR): 4 µg/mL"
CC(=O)NC[C@H]1CN(c2ccc(-c3ccc(N4C=NN(C(=O)CN)CC4)nc3)c(F)c2)C(=O)O1 [Compound 19],0.5 µg/mL,0.5 µg/mL,0.5 µg/mL,0.5 µg/mL,0.5 µg/mL,0.25 µg/mL,0.25 µg/mL,1 µg/mL,2 µg/mL,0.25 µg/mL,2 µg/mL,2 µg/mL,,,,,,,,,
C#CCN1CCN(c2ccc(-c3ccc(N4C[C@H](CNC(C)=O)OC4=O)cc3F)cn2)C=N1 [Compound 8],0.5 µg/mL,1 µg/mL,0.5 µg/mL,1 µg/mL,1 µg/mL,0.25 µg/mL,1 µg/mL,2 µg/mL,4 µg/mL,0.5 µg/mL,4 µg/mL,4 µg/mL,,,,,,,,,
CC(=O)NC[C@H]1CN(c2ccc(-c3ccc(N4C=NN(C(N)=O)CC4)nc3)c(F)c2)C(=O)O1 [Compound 17],0.25 µg/mL,0.5 µg/mL,0.25 µg/mL,0.5 µg/mL,0.25 µg/mL,0.125 µg/mL,0.25 µg/mL,2 µg/mL,1 µg/mL,0.25 µg/mL,2 µg/mL,2 µg/mL,,,,,,,,,
COC(=O)NC[C@H]1CN(c2ccc(-c3ccc(N4CCON=C4C)nc3)c(F)c2)C(=O)O1 [Compound 63],,,,,,,,,,,,,,,,,,,,,"MIC90 [1, 9]: 2 µg/mL; MIC90 [2, 10]: 4 µg/mL; MIC90 (Enterococcus faecalis; [11]): 2 µg/mL; MIC90 [3, 12]: 2 µg/mL; MIC90 [4, 13]: 2 µg/mL; MIC90 (Staphylococcus aureus; [14]): 2 µg/mL; MIC90 (Enterococcus faecium; [15]): 1 µg/mL; MIC90 (Moraxella catarrhalis; [16]): 8 µg/mL; MIC90 [5, 17]: 16 µg/mL; MIC90 [6, 18]: 1 µg/mL; MIC90 [7, 19]: 16 µg/mL; MIC90 [8, 20]: 16 µg/mL"
CC(=O)NC[C@H]1CN(c2ccc(-c3ccc(N4C=NN(C=O)CC4)nc3)c(F)c2)C(=O)O1 [Compound 1],,,,,,,,,,,,,,,,,,,,,"MIC90 [1, 9]: 0.5 µg/mL; MIC90 [2, 10]: 1 µg/mL; MIC90 (Enterococcus faecalis; [11]): 0.5 µg/mL; MIC90 [3, 12]: 1 µg/mL; MIC90 [4, 13]: 0.5 µg/mL; MIC90 (Staphylococcus aureus; [14]): 0.5 µg/mL; MIC90 (Enterococcus faecium; [15]): 0.5 µg/mL; MIC90 (Moraxella catarrhalis; [16]): 2 µg/mL; MIC90 [5, 17]: 2 µg/mL; MIC90 [6, 18]: 0.25 µg/mL; MIC90 [7, 19]: 2 µg/mL; MIC90 [8, 20]: 2 µg/mL"
O=C(O)CN1CCN(c2ccc(-c3ccc(N4C[C@H](COc5ccon5)OC4=O)cc3F)cn2)C=N1 [Compound 51],,,,,,,,,,,,,4 µg/mL,4 µg/mL,4 µg/mL,1 µg/mL,4 µg/mL,0.5 µg/mL,1 µg/mL,>128 µg/mL,"MIC90 ([5]; strain 7, E. faecalis VanA LR): 16 µg/mL; MIC90 ([6]; strain 3, S. epidermidis): 1 µg/mL; MIC90 ([7]; strain 10, E. faecium VanA LR): 32 µg/mL; MIC90 ([8]; strain 11, E. faecium VanA LR): 32 µg/mL"
CC(=O)NC[C@H]1CN(c2ccc(-c3ccc(N4C=NN(C)CC4)nc3)c(F)c2)C(=O)O1 [Compound 3],0.125 µg/mL,0.5 µg/mL,0.25 µg/mL,0.5 µg/mL,0.125 µg/mL,0.063 µg/mL,0.063 µg/mL,0.25 µg/mL,0.5 µg/mL,0.125 µg/mL,0.5 µg/mL,0.5 µg/mL,,,,,,,,,antibacterial activity against linezolid-resistant bacteria (in words) ([5]; Enterococcus faecalis and Enterococcus faecium which are resistant to linezolid): very high antibacterial activity
O=C1O[C@@H](CNc2ccon2)CN1c1ccc(-c2ccc(N3C=NOCC3)nc2)c(F)c1 [Compound 61],,,,,,,,,,,,,0.5 µg/mL,0.5 µg/mL,0.5 µg/mL,0.25 µg/mL,0.5 µg/mL,0.063 µg/mL,0.25 µg/mL,2 µg/mL,"MIC90 ([5]; strain 7, E. faecalis VanA LR): 2 µg/mL; MIC90 ([6]; strain 3, S. epidermidis): 0.25 µg/mL; MIC90 ([7]; strain 10, E. faecium VanA LR): 2 µg/mL; MIC90 ([8]; strain 11, E. faecium VanA LR): 2 µg/mL"
Cl.O=C1O[C@@H](COc2ccon2)CN1c1ccc(-c2ccc(N3C=NNCC3)nc2)c(F)c1 [Compound 44],,,,,,,,,,,,,2 µg/mL,4 µg/mL,4 µg/mL,1 µg/mL,4 µg/mL,0.5 µg/mL,1 µg/mL,>128 µg/mL,"MIC90 ([5]; strain 7, E. faecalis VanA LR): 16 µg/mL; MIC90 ([6]; strain 3, S. epidermidis): 1 µg/mL; MIC90 ([7]; strain 10, E. faecium VanA LR): 16 µg/mL; MIC90 ([8]; strain 11, E. faecium VanA LR): 16 µg/mL"
CN1CCN(c2ccc(-c3ccc(N4C[C@H](COc5ccon5)OC4=O)cc3F)cn2)C=N1 [Compound 45],,,,,,,,,,,,,2 µg/mL,4 µg/mL,2 µg/mL,1 µg/mL,4 µg/mL,0.5 µg/mL,0.5 µg/mL,>128 µg/mL,"MIC90 ([5]; strain 7, E. faecalis VanA LR): >128 µg/mL; MIC90 ([6]; strain 3, S. epidermidis): 1 µg/mL; MIC90 ([7]; strain 10, E. faecium VanA LR): >128 µg/mL; MIC90 ([8]; strain 11, E. faecium VanA LR): >128 µg/mL"
